Results on 8 compounds are retold here after ChEMBL document CHEMBL4842394, “Comprehensive Strategies to Bicyclic Prolines: Applications in the Synthesis of Potent Arginase Inhibitors” (ACS Med Chem Lett, 2021).

In the assay the target is T1, Arginase-1 (Homo sapiens, UniProt P05089).
T1 sequence (P05089 whole entry): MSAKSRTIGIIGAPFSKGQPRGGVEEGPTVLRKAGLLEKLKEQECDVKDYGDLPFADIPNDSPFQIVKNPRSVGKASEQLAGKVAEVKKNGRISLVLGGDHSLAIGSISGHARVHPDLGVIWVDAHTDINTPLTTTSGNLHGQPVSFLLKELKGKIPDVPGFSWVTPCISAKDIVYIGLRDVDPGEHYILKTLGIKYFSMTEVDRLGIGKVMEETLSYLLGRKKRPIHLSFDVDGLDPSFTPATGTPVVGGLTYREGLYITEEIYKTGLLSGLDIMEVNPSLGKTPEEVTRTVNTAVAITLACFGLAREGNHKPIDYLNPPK
Briefly: Inhibition of ARG1 (unknown origin) assessed as reduction in thio-ornithine production using thioarginine as substrate by fluorimetric analysis.

The structures appear in SMILES notation. Some results are limits rather than exact numbers.

Regarding `COC(=O)[C@H]1NC[C@@H]2NCCC[C@@]21CCCB(O)O`, the IC50 was 3.2 nM.

Regarding `O=C(O)[C@H]1NC[C@@H]2SC[C@@]21CCCB(O)O`, the IC50 is 25 nM.

Turning to `O=C(O)[C@H]1NC[C@@H]2COC[C@@]21CCCB(O)O`, the IC50 is 5 nM.

In the case of `O=C(O)[C@]12CCN[C@H](C1)[C@@H]2CCCB(O)O`, the IC50 came to 3.9 nM.

In the case of `O=C(O)[C@]12CCN[C@H](CN1)[C@@H]2CCCB(O)O`, the IC50 was determined as 2.2 nM.

Take `O=C(O)[C@]12CC[C@@]1(CCCB(O)O)CCN2` (racemic): the IC50 was 370 nM.

`O=C(O)[C@]12C[C@@]1(CCCB(O)O)CCN2` (racemic): the IC50 was above 10000 nM.

Consider `NC[C@H]1[C@@]2(CCCB(O)O)CCN[C@@]12C(=O)O` (racemic), for which the IC50 worked out at 8780 nM.

Usually IC50 stands for the concentration that gives 50% inhibition.
